Assay results published in US20220054610A1, “SLOW-CYCLING CELL-RNA BASED NANOPARTICLE VACCINE TO TREAT CANCER” (University of Florida Research Foundation, Inc., priority 2018, published 2022).

How the values were obtained:
hGBM SCCs and FCCs = test: Cell death by flow cytometry (propidium iodide incorporation, cleaved caspase 3); assay type: cell-based, human; conditions: for apoptotic cell death (cleaved caspase 3) in SCCs: unlike FCCs, 24 hours of treatment
Method: Propidium iodide incorporation and expression of cleaved caspase 3 were used to compare the effects of glucose restriction and/or mitochondrial function inhibition (by rotenone or metformin treatment). Briefly, cells were labeled with CellTrace dye and grown in complete medium for 5-7 days before being placed in high glucose (HG; >500 mg/dL) or physiological glucose conditions (PG; 90-110 mg/dL) and/or treated with rotenone (0.5-1 μM) or metformin (10-20 mM) for 24 hours. Media glucose concentrations were monitored daily and maintained constant throughout the experiments by adding glucose to the cell cultures as needed, which prevented the glucose supply exhaustion that might have occurred due to FCCs' higher division rate.
(§1) Propidium iodide and cleaved caspase 3 staining were quantified using flow cytometry. The effects of restricting glucose along with mitochondrial targeting using rotenone or metformin were investigated using the CyQUANT™ assay. Cells were plated at 60,000 cells per well in 96-well plates and exposed to the treatments alone or in combination (physiological glucose, 0.5 μM rotenone, and 10 mM metformin). CyQUANT™ binding dye was added to each well and incubated for 30 min at 37° C. before being quantified using Biotek™ Cytation™ 3 Cell Imaging Multi-Mode Reader.

[1] = test system: L1 SCC, FCC or total unsorted intracranial xenografts; test: In vivo rotenone treatment of intracranially implanted animals, survival; parameters: species or system NOD-SCID mice
Description: Adult male NOD-SCID mice (7-15 weeks old) were used for in vivo tumor implants following NIH and institutional (IACUC) guidelines and regulations for animal care and handling. The mice colonies were maintained at the University of Florida's animal facility. Animals were randomized to cages following implantation. For in vivo tumor invasion assay, FACS cells were intracranially implanted as previously described (Deleyrolle L P, et al. (2011) Brain 134:1331-43; Siebzehnrubl F A, et al. (2013) Hoang-Minh et al., EMBO Mol Med: 1196-1212) and invasion assay was performed 10 weeks post implant. For in vivo TMZ treatment, animals were implanted with 100,000 cells immediately after cell sorting. Tumor-bearing animals were intraperitoneally treated with 5 injections of 20 mg/kg TMZ over 5 days at 3 (hGBM L0) or 4 (hGBM L2) weeks post implantation. For in vivo restricted glucose and mitochondria targeting experiments, animals were xenografted with SCCs or FCCs and subjected to either a high carbohydrate control diet or a custom supplemented high fat/low carbohydrate dietary regimen (sHFLC) (Martuscello R T, et al. (2016) Clin Cancer Res. 22:2482-95). Each group received vehicle or rotenone treatment (0.5 mg/kg i.p, once a week for 6 weeks).

hGBM cells = test: CyQUANT assay, glucose restriction combined with mitochondrial targeting; assay type: cell-based, human; conditions: physiological glucose plus 0.5 μM rotenone or 10 mM metformin, 24 hours
Method: as §1

[2] = test system: L0, L1, L2 GBM patient-derived cell line xenografts; test: In vivo survival with FABP7 inhibitor and/or 2-DG, Kaplan-Meier and Cox frailty model; parameters: species or system NOD-SCID mice; conditions: Cox frailty model, all three GBM cell lines grouped
[3] = test system: GBM xenograft tumor cell invasion; test: In vivo tumor cell invasion after FABP7 inhibition; parameters: species or system NOD-SCID mice; conditions: in vivo inhibition of FABP7
Method: Tumor invasion was measured using human-specific nestin labeling (Millipore, MAB5326). Full images of brain sections were obtained by multiple gray scale imaging acquired using Spot Advanced software (Spot Imaging Solutions), merged into full images, and inverted into black-and-white images using Photoshop CS6 (Adobe Systems). Staining threshold levels were adjusted in Image J software to distinguish tumor from background, as previously described (Siebzehnrubl F A, et al. (2013) EMBO Mol Med: 1196-1212). Invasion index was obtained by calculating the ratio of the squared-perimeter distance over the area (P2/A). Dissociated tumors are associated with higher invasion indices compared to more spherical tumors characterized by lower invasion indices. High-power images of stained tissues were taken using an IX81-DSU spinning disk confocal microscope (Olympus) fitted with a 60x water immersion objective, and all images were captured as z-stacks (0.5 μm steps). For 3D imaging, pictures were acquired using a UPLSAPO 60x water objective and Hamamatsu ORCA-AG Camera. Images were captured as z-stacks (0.5 μm steps). All image analyses and 3D surface reconstructions utilized the 3i SlideBook v4.2 Software (with Deconvolution Module). Image capture settings were standardized across samples. 3D surface reconstruction rendering cut-off values were also standardized in the 3i SlideBook software.

L1 SCCs and FCCs = test: CyQUANT proliferation assay, FABP7 inhibitor with high or physiological glucose; assay type: cell-based, human; conditions: 5 days
Description: (FIG. 7A) GSEA comparing RNA sequencing results between SCCs and FCCs (n=3 biological replicates, L0-1-2) for the fatty acid metabolism gene signature. FDR, false discovery rate; NES, normalized enrichment score; Nom., nominal. (FIG. 7B) Results for qRT-PCR of genes differentially expressed between SCCs and FCCs using the RT2 Profiler PCR Array for Human Fatty Acid Metabolism. Changes in transcript levels are given as percent change relative to FCCs (n=3-8, p<0.05, one sample t-test). (FIG. 7C) FABP7 expression in brain (n=4), breast (n=336), colorectal (n=374), lung (n=117), ovarian (n=242), and pancreatic (n=20) cancer cell lines (**, p<0.005, ****, p<0.0001, one-way ANOVA). (FIG. 7D) Evaluation of the Bredel dataset indicated higher expression of FABP7 in glioblastoma (n=27) compared to non-malignant (n=4) brain tissue (**, p<0.005, t-test). […] (FIG. 7J) C16-BODIPY uptake was measured in L1 GBM line SCCs or FCCs cultured with or without 200 nM FABP7 inhibitor (FABP7i, each condition, n=3, *** p<0.0001, linear regression). […] Cell proliferation was assessed using CyQUANT assays 5 days after treatment (n=2-3, * p<0.05, one-way ANOVA with Tukey post-test). (FIG. 7L) C16-BODIPY uptake was measured in the L1 wild-type (WT) and CRISPR-FABP7 (crFABP7) cell line (each condition, n=3, * p<0.05, linear regression). […]

[4] = test system: GBM unsorted and SCC populations; test: Tumor sphere migration assay; assay type: cell-based, human
Method: For quantification of cell migration, tumor spheres were plated onto a laminin/poly-D-lysine coated surface at low density and in the presence of growth factors, FABP7 inhibitor (SB-FI-26), or DMSO as a solvent control. Images were taken from the same spheres 2 hours and 24 hours after plating with a Leica DM IL microscope equipped with a DFC3000G camera and Leica application suite X software. The greatest distance of outgrowing cells was measured using ImageJ, and migration distance was calculated as the difference between the two time points. Only spheres with a diameter greater than 50 μm, 2 hours after plating, were used to measure migration distance.

FABP7 = target: T1, FABP7 (Homo sapiens, UniProt O15540); test: C16-BODIPY fatty acid uptake by flow cytometry, FABP7 inhibition; assay type: cell-based; conditions: SCCs; 200 nM FABP7 inhibitor, L1
T1 construct: endogenous in cells; host or cells: L1 patient-derived GBM cell line, slow-cycling (SCC) and fast-cycling (FCC) cells
Method: (§2) Each cell line was labeled with CellTrace dye and grown for 5-7 days. Cells were then dissociated and treated with different BODIPY® FLC16 (Molecular probes) concentrations and incubation times described below. Fatty acids conjugated to C16-BODIPY fluorophore undergo native-like metabolism and transport. Dose response was performed with 0, 0.5, 2.5, 5, 10, 25, and 50 nM BODIPY, and the time course was done at a concentration of 5 nM for 1, 4, 5, 10, and 15 min. The cells were then washed and fixed with 4% paraformaldehyde. To determine the amount of fatty acid uptake, cells were analyzed by flow cytometry on a BD LSRII Flow Cytometer. Fatty acid transporter inhibitors SB-FI-26 (Cayman Chemicals, #14191) and BMS309403 (Millipore, #34310) were used to inhibit FABP7 (Kaczocha et al., 2014) and FABP3 (Furuhashi et al., 2007), respectively.

FABP3 = target: T2, FABP3 (Homo sapiens, UniProt P05413); test: C16-BODIPY fatty acid uptake by flow cytometry, FABP3 inhibition; assay type: cell-based; conditions: SCCs; 250 nM FABP3 inhibitor
T2 construct: endogenous in cells; host or cells: patient-derived GBM cells (SCCs and FCCs)
Method: as §2

T1 sequence (O15540 whole entry): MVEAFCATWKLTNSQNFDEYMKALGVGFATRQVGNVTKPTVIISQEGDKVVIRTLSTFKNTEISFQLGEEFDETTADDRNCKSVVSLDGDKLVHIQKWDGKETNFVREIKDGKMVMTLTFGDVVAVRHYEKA
T2 sequence (P05413 whole entry): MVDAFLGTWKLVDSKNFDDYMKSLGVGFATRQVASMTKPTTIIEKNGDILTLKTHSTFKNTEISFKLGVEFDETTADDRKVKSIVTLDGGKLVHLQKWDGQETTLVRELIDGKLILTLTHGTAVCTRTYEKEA

C=C(C)[C@H]1Cc2c(ccc3c2O[C@@H]2COc4cc(OC)c(OC)cc4[C@@H]2C3=O)O1 [rotenone]
apoptotic cell death (cleaved caspase 3) in SCCs (hGBM SCCs and FCCs): significant increase in apoptotic cell death
survival ([1]; FCC-implanted animals, 0.5 mg/kg i.p. once a week): did not gain any survival benefit
survival ([1]; SCC-implanted animals, 0.5 mg/kg i.p. once a week, versus vehicle): significant increase in survival
survival ([1]; animals implanted with total unsorted population): improved survival
GBM cell survival, combination with glucose deprivation (hGBM cells): greatest inhibitory effect on GBM cell survival

O=CC[C@@H](O)[C@H](O)[C@H](O)CO [2-DG, 2-deoxyglucose]
cell death, sensitivity of SCCs versus FCCs to glycolysis inhibition (hGBM SCCs and FCCs; 0, 5 or 20 mM for 24 hours): SCCs are less sensitive to this pharmacological inhibition than FCCs
average (main) effect HR [2]: 0.74
mortality hazard ratio (HR) versus control group [2]: 0.84

O=C(O)C1[C@H](c2ccccc2)C(C(=O)Oc2cccc3ccccc23)[C@H]1c1ccccc1 (stereo partly shown) [SB-FI-26]
tumor cell invasion in vivo [3]: decreased of cell invasion
FCC growth (L1 SCCs and FCCs; L1 FCCs, decreased glucose plus 200 nM FABP7 inhibitor): did not result in any additional growth inhibitory effect on FCCs
SCC survival/proliferation (L1 SCCs and FCCs; L1 SCCs, lower glucose plus 200 nM FABP7 inhibitor): significantly inhibited
average (main) effect HR [2]: 0.38
mortality hazard ratio (HR) versus control group [2]: 0.43
cell migration ([4]; FACS-sorted SCCs, all cell lines tested): significant decrease of cell migration
cell migration ([4]; unsorted total GBM populations, all three lines, 1 and 10 μM): significantly reduced overall cell migration
uptake of fluorescently labeled fatty acid C16-BODIPY (FABP7): significantly decreased

CN(C)C(=N)N=C(N)N [metformin]
apoptotic cell death (cleaved caspase 3) in SCCs (hGBM SCCs and FCCs): significant increase in apoptotic cell death
GBM cell survival, combination with glucose deprivation (hGBM cells): greatest inhibitory effect on GBM cell survival

CCc1c(-c2ccccc2)c(-c2ccccc2)nn1-c1ccccc1-c1cccc(OCC(=O)O)c1 [FABP3 inhibitor]
uptake of fluorescently labeled fatty acid C16-BODIPY (FABP3): significantly decreased
